Patent US10294248B2, “Beta-lactamase inhibitors” (VenatoRx Pharmaceuticals, Inc., priority 2013, dated 2019)

Tests used:
[1] = tested on: E. cloacae 144200 expressing Class C P99 AmpC; experiment: Broth microdilution MIC, E. cloacae 144200 p99 AmpC; format: cell-based; conditions: fixed 4 μg/mL ceftazidime; CAMHB, 16-20 hours at 37° C.
How it was run: (§1)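 Strains were grown 3-5 h in cation-adjusted Mueller Hinton broth, then inoculated per CLSI into plates holding compound dilutions (32 to 0.25 μg/ml, 2-fold) plus a β-lactam fixed at 4 μg/ml. Plates were incubated 16-20 h at 37° C before visual MIC reading.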

[2] = biological target: T1, VIM-2 metallo-β-lactamase (Class B) (Pseudomonas aeruginosa, UniProt Q9K2N0); experiment: β-Lactamase inhibition, VIM-2; format: biochemical; conditions: nitrocefin 100 μM, 486 nm; 15 min preincubation at 37° C., PBS pH 7.4
T1 construct: made in house; host or cells: E. coli BL21(DE3)
How it was run: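 First, VIM-2 purified by repeated anion exchange at pH 7.5 is mixed with inhibitor and held 15 min at 37 °C. Next, nitrocefin (final 100 μM) is dispensed and absorbance at 486 nm monitored immediately for 10 min. Rates versus uninhibited controls give IC50.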

[3] = biological target: T2, KPC-2 β-lactamase (Class A carbapenemase) (Klebsiella pneumoniae, UniProt Q9F663); experiment: β-Lactamase inhibition, KPC-2; format: biochemical; conditions: imipenem substrate, 300 nm; 15 min preincubation at 37° C., PBS pH 7.4
T2 construct: made in house; host or cells: E. coli BL21(DE3)
How it was run: (§2)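 Untagged enzyme from E. coli BL21(DE3), purified by Capto S then Superdex 75; 15 min 37 °C preincubation with inhibitor; KPC-2 read with imipenem at 300 nm, SHV-5 with cefotaxime at 260 nm, OXA-1 with nitrocefin 100 μM final at 486 nm; 10 min kinetic read; IC50 vs uninhibited wells.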

[4] = tested on: K. pneumoniae 156319 expressing KPC-3; experiment: Broth microdilution MIC, K. pneumoniae 156319 KPC-3; format: cell-based; conditions: fixed 4 μg/mL meropenem; CAMHB, 16-20 hours at 37° C.
How it was run: as §1

[5] = biological target: T3, p99 AmpC β-lactamase (Class C) (Enterobacter cloacae, UniProt P05364); experiment: β-Lactamase inhibition, p99 AmpC; format: biochemical
T3 construct: made in house; host or cells: E. coli BL21(DE3)

[6] = tested on: P. aeruginosa Ps296 expressing VIM-2; experiment: Broth microdilution MIC, P. aeruginosa Ps296 VIM-2; format: cell-based; conditions: fixed 4 μg/mL meropenem; CAMHB, 16-20 hours at 37° C.
How it was run: as §1

[7] = tested on: E. coli ESBL4 expressing CTX-M-15; experiment: Broth microdilution MIC, E. coli ESBL4 CTX-M-15; format: cell-based; conditions: fixed 4 μg/mL ceftazidime; CAMHB, 16-20 hours at 37° C.
How it was run: as §1

[8] = tested on: K. pneumoniae A-1797 expressing KPC-2 and VIM-4; experiment: Broth microdilution MIC, K. pneumoniae A-1797 KPC-2/VIM-4; format: cell-based; conditions: fixed 4 μg/mL meropenem; CAMHB, 16-20 hours at 37° C.
How it was run: as §1

[9] = biological target: T4, OXA-1 β-lactamase (Class D oxacillinase) (Escherichia coli, UniProt P13661); experiment: β-Lactamase inhibition, OXA-1; format: biochemical; conditions: nitrocefin 100 μM, 486 nm; 15 min preincubation at 37° C., PBS pH 7.4
T4 construct: made in house; host or cells: E. coli BL21(DE3)
How it was run: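 Compounds are mixed with purified, untagged recombinant β-lactamase and held 15 min at 37 °C. Substrate is then added: nitrocefin (100 μM final) for OXA-1, imipenem for KPC-2, cefotaxime for SHV-5. Absorbance is followed immediately, and percent inhibition per concentration gives the IC50.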

[10] = tested on: S. aureus MSSA-7 producing penicillinase PC-1; experiment: Broth microdilution MIC, S. aureus MSSA-7 PC-1; format: cell-based; conditions: fixed 4 μg/mL piperacillin; CAMHB, 16-20 hours at 37° C.
How it was run: as §1

[11] = biological target: T5, SHV-5 β-lactamase (Class A ESBL) (Klebsiella pneumoniae, UniProt P0A3M1); experiment: β-Lactamase inhibition, SHV-5; format: biochemical
T5 construct: made in house; host or cells: E. coli BL21(DE3)
How it was run: as §2

T4 sequence (P13661 26-276): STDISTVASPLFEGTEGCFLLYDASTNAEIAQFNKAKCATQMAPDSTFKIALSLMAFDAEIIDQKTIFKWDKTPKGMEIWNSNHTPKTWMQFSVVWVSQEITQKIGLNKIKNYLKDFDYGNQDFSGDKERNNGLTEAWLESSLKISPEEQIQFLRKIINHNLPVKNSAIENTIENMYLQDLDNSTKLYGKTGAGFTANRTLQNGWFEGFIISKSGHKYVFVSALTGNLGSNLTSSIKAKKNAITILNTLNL
T3 sequence (P05364 21-381): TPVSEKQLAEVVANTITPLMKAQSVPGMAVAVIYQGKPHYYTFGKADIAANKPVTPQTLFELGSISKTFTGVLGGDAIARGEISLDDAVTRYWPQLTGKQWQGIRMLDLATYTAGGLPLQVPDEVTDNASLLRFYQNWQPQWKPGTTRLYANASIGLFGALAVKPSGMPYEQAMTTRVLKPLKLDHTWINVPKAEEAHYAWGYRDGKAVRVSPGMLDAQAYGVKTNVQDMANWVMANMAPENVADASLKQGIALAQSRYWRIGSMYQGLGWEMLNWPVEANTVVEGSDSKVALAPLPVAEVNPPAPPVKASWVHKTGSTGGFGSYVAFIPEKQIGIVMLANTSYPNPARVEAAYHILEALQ
T2 sequence (Q9F663 25-293, looked up): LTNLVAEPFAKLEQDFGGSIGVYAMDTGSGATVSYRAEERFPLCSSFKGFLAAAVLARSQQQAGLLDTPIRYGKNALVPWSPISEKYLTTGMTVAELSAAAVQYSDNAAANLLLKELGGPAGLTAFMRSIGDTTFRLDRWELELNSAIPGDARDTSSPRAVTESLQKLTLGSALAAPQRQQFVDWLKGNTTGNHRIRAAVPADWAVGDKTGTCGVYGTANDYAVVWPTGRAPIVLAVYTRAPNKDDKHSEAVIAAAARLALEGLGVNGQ
T5 sequence (P0A3M1 22-286): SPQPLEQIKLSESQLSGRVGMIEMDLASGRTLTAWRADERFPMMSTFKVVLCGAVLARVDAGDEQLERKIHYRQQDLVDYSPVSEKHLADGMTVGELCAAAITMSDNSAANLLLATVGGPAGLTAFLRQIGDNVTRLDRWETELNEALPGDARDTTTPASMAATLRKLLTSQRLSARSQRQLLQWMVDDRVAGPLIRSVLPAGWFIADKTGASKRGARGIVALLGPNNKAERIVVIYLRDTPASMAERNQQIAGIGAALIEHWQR

Row | SMILES | MIC of example compound in presence of fixed β-lactam: Fixed CAZ, E. cl. 144200 p99 AmpC [1] | IC50 [2] | IC50 [3] | MIC of example compound in presence of fixed β-lactam: Fixed Mero, K. P. 156319 KPC-3 [4] | IC50 [5] | MIC of example compound in presence of fixed β-lactam: Fixed Mero, P. aerug. Ps296 VIM-2 [6] | MIC of example compound in presence of fixed β-lactam: Fixed CAZ, E. coli ESBL4 CTX-M-15 [7] | MIC of example compound in presence of fixed β-lactam: Fixed Mero, K. P. A-1797 KPC-2 VIM-4 [8] | IC50 [9] | MIC of example compound in presence of fixed β-lactam: Fixed Pip, S. aureus MSSA-7 PC-1 [10] | IC50 [11]
1 | NCC(=O)N1CCN(CC(=O)N[C@H]2Cc3cccc(C(=O)O)c3OB2O)CC1 [Example 17, 3-{2-[4-(2-Amino-acetyl)-piperazin-1-yl]-acetylamino}-2-hydroxy-3,4-dihydro-2H-benzo[e][1,2]oxaborinine-8-carboxylic acid] | C (the MIC in the presence of <4 μg/mL of a β-lactamase inhibitor) | 1000 to 10000 nM | 100 to 1000 nM | B (the MIC in the presence of between 8 and 32 μg/mL of a β-lactamase inhibitor) | < 100 nM | A (an MIC of the fixed β-lactam antibiotic in the presence of >32 μg/mL of a β-lactamase inhibitor) | B (the MIC in the presence of between 8 and 32 μg/mL of a β-lactamase inhibitor) | A (an MIC of the fixed β-lactam antibiotic in the presence of >32 μg/mL of a β-lactamase inhibitor) | < 100 nM | C (the MIC in the presence of <4 μg/mL of a β-lactamase inhibitor) | < 100 nM
2 | O=C(CNC1CCNCC1)N[C@H]1Cc2cccc(C(=O)O)c2OB1O [Example 40, 2-Hydroxy-3-[2-(piperidin-4-ylamino)-acetylamino]-3,4-dihydro-2H-benzo[e][1,2]oxaborinine-8-carboxylic acid] | C (the MIC in the presence of <4 μg/mL of a β-lactamase inhibitor) | 100 to 1000 nM | 100 to 1000 nM | B (the MIC in the presence of between 8 and 32 μg/mL of a β-lactamase inhibitor) | < 100 nM | C (the MIC in the presence of <4 μg/mL of a β-lactamase inhibitor) | C (the MIC in the presence of <4 μg/mL of a β-lactamase inhibitor) | B (the MIC in the presence of between 8 and 32 μg/mL of a β-lactamase inhibitor) | < 100 nM | C (the MIC in the presence of <4 μg/mL of a β-lactamase inhibitor) | < 100 nM
3 | O=C(CN1CCN(c2nccs2)CC1)N[C@H]1Cc2cccc(C(=O)O)c2OB1O [Example 15, 2-Hydroxy-3-[2-(4-thiazol-2-yl-piperazin-1-yl)-acetylamino]-3,4-dihydro-2H-benzo[e][1,2]oxaborinine-8-carboxylic acid] | C (the MIC in the presence of <4 μg/mL of a β-lactamase inhibitor) | 1000 to 10000 nM | 1000 to 10000 nM | C (the MIC in the presence of <4 μg/mL of a β-lactamase inhibitor) | < 100 nM | C (the MIC in the presence of <4 μg/mL of a β-lactamase inhibitor) | C (the MIC in the presence of <4 μg/mL of a β-lactamase inhibitor) | B (the MIC in the presence of between 8 and 32 μg/mL of a β-lactamase inhibitor) | 100 to 1000 nM | C (the MIC in the presence of <4 μg/mL of a β-lactamase inhibitor) | 100 to 1000 nM
4 | CN(C)c1ccc(NC(=O)N2CC(C(=O)N[C@H]3Cc4cccc(C(=O)O)c4OB3O)C2)cc1 [Example 47, (R)-3-(1-(4-(dimethylamino)phenylcarbamoyl)azetidine-3-carboxamido)-2-hydroxy-3,4-dihydro-2H-benzo[e][1,2]oxaborinine-8-carboxylic acid] | C (the MIC in the presence of <4 μg/mL of a β-lactamase inhibitor) | 100 to 1000 nM | < 100 nM | C (the MIC in the presence of <4 μg/mL of a β-lactamase inhibitor) | < 100 nM | C (the MIC in the presence of <4 μg/mL of a β-lactamase inhibitor) | C (the MIC in the presence of <4 μg/mL of a β-lactamase inhibitor) | B (the MIC in the presence of between 8 and 32 μg/mL of a β-lactamase inhibitor) | 100 to 1000 nM | B (the MIC in the presence of between 8 and 32 μg/mL of a β-lactamase inhibitor) | < 100 nM
5 | NCC1CCN(CC(=O)N[C@H]2Cc3cccc(C(=O)O)c3OB2O)CC1 [Example 5, 3-[2-(4-Aminomethyl-piperidin-1-yl)-acetylamino]-2-hydroxy-3,4-dihydro-2H-benzo[e][1,2]oxaborinine-8-carboxylic acid] | C (the MIC in the presence of <4 μg/mL of a β-lactamase inhibitor) | 100 to 1000 nM | < 100 nM | C (the MIC in the presence of <4 μg/mL of a β-lactamase inhibitor) | < 100 nM | B (the MIC in the presence of between 8 and 32 μg/mL of a β-lactamase inhibitor) | C (the MIC in the presence of <4 μg/mL of a β-lactamase inhibitor) | C (the MIC in the presence of <4 μg/mL of a β-lactamase inhibitor) | < 100 nM | B (the MIC in the presence of between 8 and 32 μg/mL of a β-lactamase inhibitor) | 1000 to 10000 nM
6 | O=C(COC1CCNCC1)N[C@H]1Cc2cccc(C(=O)O)c2OB1O [Example 39, 2-Hydroxy-3-[2-(piperidin-4-yloxy)-acetylamino]-3,4-dihydro-2H-benzo[e][1,2]oxaborinine-8-carboxylic acid] | C (the MIC in the presence of <4 μg/mL of a β-lactamase inhibitor) | 100 to 1000 nM | < 100 nM | C (the MIC in the presence of <4 μg/mL of a β-lactamase inhibitor) | < 100 nM | C (the MIC in the presence of <4 μg/mL of a β-lactamase inhibitor) | C (the MIC in the presence of <4 μg/mL of a β-lactamase inhibitor) | B (the MIC in the presence of between 8 and 32 μg/mL of a β-lactamase inhibitor) | < 100 nM | C (the MIC in the presence of <4 μg/mL of a β-lactamase inhibitor) | 100 to 1000 nM
7 | O=C(O)c1cccc2c1OB(O)[C@@H](NC(=O)C1CNCCN1)C2 (some centres unmarked) [Example 50, 2-Hydroxy-3-[(piperazine-2-carbonyl)-amino]-3,4-dihydro-2H-benzo[e][1,2]oxaborinine-8-carboxylic acid] | C (the MIC in the presence of <4 μg/mL of a β-lactamase inhibitor) | 1000 to 10000 nM | < 100 nM | C (the MIC in the presence of <4 μg/mL of a β-lactamase inhibitor) | < 100 nM | C (the MIC in the presence of <4 μg/mL of a β-lactamase inhibitor) | C (the MIC in the presence of <4 μg/mL of a β-lactamase inhibitor) | A (an MIC of the fixed β-lactam antibiotic in the presence of >32 μg/mL of a β-lactamase inhibitor) | < 100 nM | C (the MIC in the presence of <4 μg/mL of a β-lactamase inhibitor) | < 100 nM
